Source: ChEMBL document CHEMBL1156829 (Proc Natl Acad Sci U S A, 2008)

Assays:
Plasmodium falciparum [1] = assay: NOVARTIS: Inhibition of Plasmodium falciparum 3D7 (drug-susceptible) proliferation in erythrocyte-based infection assay; type: functional, organism-based; settings: Plasmodium falciparum, 3D7
[2] = NOVARTIS: Cytotoxicity against human hepatocellular carcinoma cell line (Huh7); type: toxicity, cell-based, Huh-7; settings: Huh7 cells (hepatocellular carcinoma cell line)
Plasmodium falciparum [3] = assay: NOVARTIS: Inhibition of Plasmodium falciparum W2 (drug-resistant) proliferation in erythrocyte-based infection assay; type: functional, organism-based; settings: Plasmodium falciparum, W2; read-out: EC50

Row | SMILES | EC50 (Plasmodium falciparum [1]) [nM] | CC50 [2] [nM] | EC50 (Plasmodium falciparum [3]) [nM]
1 | CN(Cc1ccccc1)CC(O)COc1ccc(CNCCCN2CCCC2)cc1 (stereo not drawn) | 2380 | 59800 | 2560
2 | O=C1C2C(C(=O)N1c1ccccc1F)C1(c3ccccc3)C(=O)C2(c2ccccc2)C(c2ccccc2)=C1c1ccccc1 (stereo not drawn) | 811 | > 100000 | 344
3 | O=C(NC1CCN(CC(O)CN(Cc2ccccc2)S(=O)(=O)c2ccccc2)C1)c1ccsc1 (stereo not drawn) | 120 | > 10000 | < 8.62
4 | O=C(Nc1ccccc1)NC1CC2CCCC(C1)N2CCc1ccccc1 (stereo not drawn) | 156 | > 10000 | 98.2
5 | CCN1CCCC1CNc1[nH]cnc2c3cc(F)ccc3nc1-2 (stereo not drawn) | 808 | 22400 | 1260
6 | CN1CCc2c(C#N)c(N3CCCC3)nc(N3CCCC3)c2C1 | 2120 | > 100000 | 4820
7 | CCCCN(CCCC)[P+](N(CCCC)CCCC)(N(CCCC)CCCC)N(CCCC)CCCC | 224 | 784 | 65.4
8 | COc1ccc(C(C)=O)cc1N1C(=O)C2C(C1=O)C1(c3ccccc3)C(=O)C2(c2ccccc2)C(c2ccc(C)cc2)=C1c1ccc(C)cc1 (stereo not drawn) | 2460 | > 100000 | 1800
9 | CC(CCCNCCO)Nc1ccnc2cc(Cl)ccc12 (stereo not drawn) [CLETOQUINE] | 26.9 | 14000 | 736
10 | O=C1CN=C(c2ccccc2Cl)c2cc(Cl)ccc2N1Cc1cccc([N+](=O)[O-])c1 | > 4470 | > 100000 | > 4670
11 | Cc1ccn2c(NC(C)(C)CC(C)(C)C)c(-c3ccccc3OC(=O)c3ccc(Cl)cc3)nc2c1 | 1210 | > 8270 | 77.8
12 | O=[N+]([O-])c1cc([N+](=O)[O-])c2cccnc2c1Nc1cccc2cccnc12 | 8040 | 59900 | 6440
13 | CCC(c1ccc(F)cc1)n1cc(C(=O)NCCCN2CCC(C)CC2)nn1 (stereo not drawn) | > 651 | > 10000 | > 1640
14 | CCN1/C(=C/c2cccc[n+]2C)Sc2cc(NC(C)=O)ccc21 | 1400 | > 10000 | > 1250
15 | N#Cc1cc(N2CC3CC(C2)c2cccc(=O)n2C3)c([N+](=O)[O-])cc1C#N (stereo not drawn) | > 12500 | > 100000 | 3360
16 | Nc1ccc(C(=O)Nc2ccc(-c3nc4ccccc4o3)cc2)cc1 | 935 | > 100000 | 893
17 | COc1ccc(-c2csc3ncnc(Cl)c23)cc1OC | 2320 | > 100000 | 723
18 | O=C(NCCCCCCCCNC(=O)Nc1ccc(C2=NCCN2)cc1)Nc1ccc(C2=NCCN2)cc1 | 85.4 | > 10000 | 45.9
19 | Clc1ccc2c(N3CCC(n4cccc4)CC3)ccnc2c1 | 1020 | > 100000 | 1050
20 | N#Cc1sccc1NS(=O)(=O)c1ccc(Cl)cc1 | > 1250 | > 10000 | > 413
21 | COc1ccc(CCN2C(=O)N(CCN(C)C)C(=O)C23CCN(Cc2ccc(O)cc2)CC3)cc1 | 221 | 78500 | 828
22 | Cc1ccc(NC(=S)NCCO)cc1C | 1810 | > 100000 | 1020
23 | Cc1ccc(CNC(=O)CCCCCn2c(SCc3cccc([N+](=O)[O-])c3)nc3ccsc3c2=O)cc1 | 6280 | > 100000 | 1600
24 | CC(=O)Oc1cccc(C=c2sc3ncnn3c2=O)c1 | > 1250 | > 10000 | > 989
25 | N=c1c2c(n(Cc3cccc(Cl)c3)c3c1CCC3)CCCC2 | 992 | > 10000 | 378
26 | CC(C)(C)C1=NN(CC(=O)Nc2ccc3c(c2)OCO3)C(=O)c2cc3ccccc3n2C1 | > 12500 | 9810 | 3160

Row | SMILES | EC50 (Plasmodium falciparum [1]) [nM] | CC50 [2] [nM] | EC50 (Plasmodium falciparum [3]) [nM]
27 | CCOc1ccccc1C=NNc1nc(Nc2ccccc2)nc(Nc2ccccc2)n1 | 2050 | > 10000 | > 1250
28 | CCN(Cc1ccccc1)Cc1c(O)ccc2oc(C)c(C(=O)Nc3ccc(C)cc3C)c12 | 3490 | 42300 | 2100
29 | COCCOC(=O)NCc1ccc(Nc2c(C(C)(C)C)nc3cnccn23)cc1 | 102 | > 10000 | 15.5
30 | Cc1cc(-c2cnc(N3CCCC3)nc2C2CCN(Cc3cccnc3)CC2)on1 | 190 | > 10000 | > 1090
31 | CCCN1CCC(N2C[C@@H](NC3CCCCCCC3)C[C@H]2C(=O)NCCc2ccc3c(c2)OCO3)CC1 | > 1360 | > 10000 | > 1300
32 | COCCNCC(O)CON=C1c2ccccc2-c2ccccc21 (stereo not drawn) | 4790 | 23300 | 704
33 | Clc1ccc(C[n+]2cc(-c3ccccc3)n3c2CCC3)cc1Cl | 499 | > 55700 | 158
34 | CC[n+]1c(C=Cc2ccc(C)cc2)ccc2ccccc21 | 2990 | 20900 | 2700
35 | CCCCCC(=O)NCCCCCCNc1ccnc2cc(Cl)ccc12 | 254 | > 13900 | 222
36 | CC(NC(=O)c1cnn2c(C(F)(F)F)cc(-c3ccc(Br)cc3)nc12)c1ccccc1 (stereo not drawn) | > 10800 | > 100000 | 1520
37 | O=C1CSC2=NCN(c3cccc(Cl)c3)CN12 | > 12500 | > 100000 | 1260
38 | COc1ccc(-n2c(SCC(=O)Nc3cc(Cl)ccc3OC)nnc2-c2ccccc2)cc1 | > 1100 | > 11400 | < 1.06
39 | CO[C@H]1O[C@@H]2COC(c3ccccc3)O[C@H]2[C@@H](O)[C@@H]1OCc1ccccc1 (stereo partly drawn) | 376 | > 13800 | 555
40 | Cc1ccccc1OCCSc1nc2ccc(NC(=O)c3ccccc3)cc2s1 | 9760 | > 100000 | > 7470
41 | CCC(C)(C)n1nnnc1C(c1cc2cc(C)cc(C)c2[nH]c1=O)N1CCN(c2ccc(O)cc2)CC1 (stereo not drawn) | 2440 | > 100000 | 1070
42 | CCOC(=O)C1=C(C)NC2=C(C(=O)CC(c3ccc(OC)c(OC)c3)C2)C1c1ccc(Br)cc1 (stereo not drawn) | 18.2 | > 100000 | 4.81
43 | Cc1ccc2cc3c(N)c4c(C)ccc(C)c4nc3nc2c1 | 431 | > 100000 | 308
44 | CC(C)CCNc1ncc(C(=O)NCC(C)C)c(NCCc2ccccc2)n1 | 724 | > 10000 | 543
45 | O=C(NCc1ccco1)c1ccc(OC2CCN(Cc3ccncc3)CC2)c(Cl)c1 | 683 | > 100000 | 427
46 | Cc1cc(Nc2ccc(C)c(C)c2)n2cnnc2n1 | 242 | > 73900 | 590
47 | O=C(/C=C/c1ccccn1)NCC1Cc2cc(-c3cnccn3)ccc2O1 (stereo not drawn) | > 1250 | > 10000 | > 356
48 | Nc1nc(N)c2cc(S(=O)(=O)N3CCSCC3)ccc2n1 | 116 | 15100 | > 1250
49 | CCOc1ccc2[nH]c(=O)c(CN(Cc3ccccc3OC)C(C)=O)cc2c1 | > 1740 | > 10000 | > 1210
50 | Cc1cc(Nc2cccc([N+](=O)[O-])c2)nc2cc(O)ccc12 | 672 | 36300 | 75.1
51 | c1ccc(-c2cc(NCCCN3CCOCC3)nc(-c3ccccn3)n2)nc1 | > 1010 | > 10000 | 586
